Consider 17 compounds from patent US20230081426A1, “COMPOUNDS AND METHODS FOR KRAS MODULATION AND INDICATIONS THEREFOR” (Plexxikon Inc., priority 2020, published 2023).

As usually defined, the IC50 is the concentration needed to halve the response being measured.

Molecules are shown by their SMILES.

In assay [1] the target is T1, G12D-mutant human KRAS (amino acid residues 1-188) (Homo sapiens, UniProt P01116, G12D).
T1 construct: G12D or G12C-mutant human KRAS (amino acid residues 1-188) with FLAG tag; made in house; host or cells: E. coli
Put plainly: KRAS Binding Disruption Assay (AlphaScreen; biotinylated KRpep-2d analogue or RAF1-RBD), G12D. The conditions noted are these: KRAS G12D; geometric mean; read-out: KRAS GMean IC50 (uM) MUTATION: G12D. The method, boiled down:
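Displacement format with mutant KRAS, biotinylated KRpep-2d analogue or RAF1-RBD (5-20 nM each) at pH 7.5 with 5 mM MgCl2.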

In assay [2] the target is T2, G12V-mutant human KRAS (amino acid residues 1-188) (Homo sapiens, UniProt P01116, G12V).
T2 construct: G12V-mutant human KRAS (amino acid residues 1-188) with FLAG tag was purified from E. coli; made in house; host or cells: E. coli
Put plainly: KRAS Binding Competition Assay (AlphaScreen; biotinylated KRpep-2d analogue), G12V. The following applies: geometric mean, read-out: KRAS GMean IC50 (uM) MUTATION: G12V. Here is the method:
Compound binding disrupts the interaction of KRpep-2d with KRAS, leading to a decrease in Alpha signal.
All assay components were prepared in 20 mM HEPES (pH 7.5), 100 mM NaCl, 5 mM MgCl2, 0.01% Tween-20, and 0.01% BSA. Biotinylated analogues of KRpep-2d were custom synthesized. The binding competition assays were performed using 10 nM of mutant KRAS and 10 nM of biotinylated KRpep-2d analogue. 19 μL of KRAS protein and 4 μL of biotinylated KRpep-2d were added to the wells of a 384-well plate containing 1 μL of various concentrations of test compound or DMSO vehicle. 16 wells containing KRAS, biotinylated KRpep-2d, and 5% DMSO served as high controls. 16 wells containing KRAS only and 5% DMSO served as low controls. Binding reactions were incubated for 1 hour at 25° C., then Anti-Flag Acceptor and Streptavidin Donor Alpha beads were added at a final concentration of 10 μg/mL for an additional hour at room temperature. Alpha signal was read out on a Perkin Elmer Envision HTS instrument. The percentage inhibition at individual compound concentrations relative to high and low controls was calculated. The data were analyzed by using nonlinear regression to generate IC50 values.
Background: Bead proximity is the source of the signal in Alpha formats.

In the case of `CN1CCC[C@H]1COc1nc(N2CC3COCC(C2)N3C(=O)NC2CCOC2)c2ccc(-c3cc(O)cc4ccccc34)c(F)c2n1` (mixture of isomers) [P-0251, rac-7-(8-fluoro-7-(3-hydroxynaphthalen-1-yl)-2-(((R)-1-methylpyrrolidin-2-yl)methoxy)quinazolin-4-yl)-N-(tetrahydrofuran-3-yl)-3-oxa-7,9-diazabicyclo[3.3.1]nonane-9-carboxamide], the IC50 in assay [1] and in assay [2] was 0.0001 to 10 µM each time.

As to `CN1CCC[C@H]1COc1nc(N2CC3CCC(C2)N3)c2ccc(N3CC(O)Cc4ccccc43)cc2n1` (mixture of isomers) [P-0256, 1-(4-((1R,5S)-3,8-diazabicyclo[3.2.1]octan-3-yl)-2-(((RS)-1-methylpyrrolidin-2-yl)methoxy)quinazolin-7-yl)-1,2,3,4-tetrahydroquinolin-3-ol], the IC50 in assay [1] and in assay [2] was 10 to 100 µM throughout.

Turning to `CN1CCC[C@H]1COc1nc(N2CC3CCC(C2)N3C(=O)CCCN2CCOCC2)c2ccc(-c3cc(O)cc4ccccc34)c(F)c2n1` (racemic) [P-0429, 1-((1R,5S)-3-(8-fluoro-7-(3-hydroxynaphthalen-1-yl)-2-(((RS)-1-methylpyrrolidin-2-yl)methoxy)quinazolin-4-yl)-3,8-diazabicyclo[3.2.1]octan-8-yl)-4-morpholinobutan-1-one], the IC50 in assay [1] was in the range of 0.0001 to 10 µM; in assay [2], 10 to 100 µM.

For the compound `Oc1cc(-c2ccc3c(N4C[C@H]5CC[C@@H](C4)N5)nc(OCC45CCCN4CCC5)nc3c2Cl)c2ccccc2c1` [P-0003, 4-(4-((1R,5S)-3,8-diazabicyclo[3.2.1]octan-3-yl)-8-chloro-2-((tetrahydro-1H-pyrrolizin-7a(5H)-yl)methoxy)quinazolin-7-yl)naphthalen-2-ol], the IC50 in assay [1] and in assay [2] was 0.0001 to 10 µM in each case.

Consider `CN1CCC[C@H]1CNc1nc(N2C[C@H]3CC[C@@H](C2)N3)c2ccc(-c3cc(O)cc4ccccc34)cc2n1` [P-0016, 4-(4-((1R,5S)-3,8-diazabicyclo[3.2.1]octan-3-yl)-2-((((S)-1-methylpyrrolidin-2-yl)methyl)amino)quinazolin-7-yl)naphthalen-2-ol], for which the figures for the IC50 in assay [1] and in assay [2] were 0.0001 to 10 µM and 10 to 100 µM, respectively.

`Cc1ccc2[nH]ncc2c1-c1c(Cl)cc2c(N3C[C@H]4CC[C@@H](C3)N4)nc(OC[C@@H]3CCCN3C)nc2c1F` [P-0028, 4-((1R,5S)-3,8-diazabicyclo[3.2.1]octan-3-yl)-6-chloro-8-fluoro-7-(5-methyl-1H-indazol-4-yl)-2-(((S)-1-methylpyrrolidin-2-yl)methoxy)quinazoline]: the IC50 in assay [1] lay within 0.0001 to 10 µM; in assay [2], 100 to 1000 µM.

For the compound `O=C(NCCN1CCOCC1)N1[C@@H]2CC[C@H]1CN(c1nc(OCC34CCCN3CCC4)nc3cc(-c4cc(O)cc5ccccc45)ccc13)C2` [P-0029, (1R,5S)-3-(7-(3-hydroxynaphthalen-1-yl)-2-((tetrahydro-1H-pyrrolizin-7a(5H)-yl)methoxy)quinazolin-4-yl)-N-(2-morpholinoethyl)-3,8-diazabicyclo[3.2.1]octane-8-carboxamide], the IC50 in assay [1] and in assay [2] was 0.0001 to 10 µM throughout.

In the case of `CN1CCC[C@H]1COc1nc(N2CC3CC(C2)N3)c2cc(Cl)c(-c3cc(O)cc4ccccc34)c(F)c2n1` [P-0031, 4-(4-(3,6-diazabicyclo[3.1.1]heptan-3-yl)-6-chloro-8-fluoro-2-(((S)-1-methylpyrrolidin-2-yl)methoxy)quinazolin-7-yl)naphthalen-2-ol], the values for the IC50 in assay [1] and in assay [2] were 0.0001 to 10 µM and 10 to 100 µM, respectively.

On to `CN1CCC[C@H]1COc1nc(N2C[C@@H]3C[C@H]2CN3)c2cc(Cl)c(-c3cc(O)cc4ccccc34)c(F)c2n1` [P-0042, 4-(4-((1S,4S)-2,5-diazabicyclo[2.2.1]heptan-2-yl)-6-chloro-8-fluoro-2-(((S)-1-methylpyrrolidin-2-yl)methoxy)quinazolin-7-yl)naphthalen-2-ol], for which the IC50 in assay [1] is 0.0001 to 10 µM; in assay [2], 10 to 100 µM.

`CN1CCC[C@H]1COc1nc(N2C[C@H]3CC[C@@H](C2)N3)c2cc(Cl)c(-c3cc(O)cc4ccccc34)cc2n1` [P-0043, 4-(4-((1R,5S)-3,8-diazabicyclo[3.2.1]octan-3-yl)-6-chloro-2-(((S)-1-methylpyrrolidin-2-yl)methoxy)quinazolin-7-yl)naphthalen-2-ol]: the figures for the IC50 in assay [1] and in assay [2] were 0.0001 to 10 µM and 10 to 100 µM, respectively.

For `CN1CCC[C@H]1COc1nc(N2CCC3CCC(C2)N3)c2cc(Cl)c(-c3cc(O)cc4ccccc34)c(F)c2n1` (stereo partly drawn) [P-0046, 4-(4-(3,9-diazabicyclo[4.2.1]nonan-3-yl)-6-chloro-8-fluoro-2-(((S)-1-methylpyrrolidin-2-yl)methoxy)quinazolin-7-yl)naphthalen-2-ol], the IC50 lay in the range of 0.0001 to 10 µM in assay [1] and 10 to 100 µM in assay [2].

For the compound `Oc1cc(-c2c(Cl)cc3c(N4C[C@H]5CC[C@@H](C4)N5)nc(OCC45CCCN4CC(F)(F)C5)nc3c2F)c2ccccc2c1` (stereo partly drawn) [P-0047, 4-(4-((1R,5S)-3,8-diazabicyclo[3.2.1]octan-3-yl)-6-chloro-2-((2,2-difluorotetrahydro-1H-pyrrolizin-7a(5H)-yl)methoxy)-8-fluoroquinazolin-7-yl)naphthalen-2-ol], the IC50 in assay [1] and in assay [2] was 0.0001 to 10 µM throughout.

Consider `CN1CCC[C@H]1COc1nc(N2CC3CCC2CN3)c2ccc(-c3cc(O)cc4ccccc34)cc2n1` (stereo partly drawn) [P-0050, 4-(4-(2,5-diazabicyclo[2.2.2]octan-2-yl)-2-(((S)-1-methylpyrrolidin-2-yl)methoxy)quinazolin-7-yl)naphthalen-2-ol], for which the IC50 in assay [1] was 0.0001 to 10 µM; in assay [2], 10 to 100 µM.

On to `Oc1cc(-c2ccc3c(C4=C[C@@H]5CC[C@H](C4)N5)nc(OCC45CCCN4CCC5)nc3c2)c2ccccc2c1` [P-0054, 4-(4-((1S,5R)-8-azabicyclo[3.2.1]oct-2-en-3-yl)-2-((tetrahydro-1H-pyrrolizin-7a(5H)-yl)methoxy)quinazolin-7-yl)naphthalen-2-ol], for which the values for the IC50 in assay [1] and in assay [2] were 0.0001 to 10 µM and 10 to 100 µM, respectively.

`CN1C[C@H](F)C[C@H]1COc1nc(N2C[C@H]3CC[C@@H](C2)N3)c2ccc(-c3cc(O)cc4ccccc34)cc2n1` [P-0072, 4-(4-((1R,5S)-3,8-diazabicyclo[3.2.1]octan-3-yl)-2-(((2S,4R)-4-fluoro-1-methylpyrrolidin-2-yl)methoxy)quinazolin-7-yl)naphthalen-2-ol]: the IC50 in assay [1] and in assay [2] was 0.0001 to 10 µM each time.

In the case of `Cc1cccc2cc(O)cc(-c3ccc4c(N5C[C@H]6CC[C@@H](C5)N6)nc(OC[C@@H]5CCCN5C)nc4c3F)c12` [P-0073, 4-(4-((1R,5S)-3,8-diazabicyclo[3.2.1]octan-3-yl)-8-fluoro-2-(((S)-1-methylpyrrolidin-2-yl)methoxy)quinazolin-7-yl)-5-methylnaphthalen-2-ol], the IC50 in assay [1] and in assay [2] was 0.0001 to 10 µM each time.

For `O=C(NC1CCCC1)N1[C@@H]2CC[C@H]1CN(c1nc(OCC34CCCN3CCC4)nc3cc(-c4cc(O)cc5ccccc45)ccc13)C2` [P-0075, (1R,5S)-N-cyclopentyl-3-(7-(3-hydroxynaphthalen-1-yl)-2-((tetrahydro-1H-pyrrolizin-7a(5H)-yl)methoxy)quinazolin-4-yl)-3,8-diazabicyclo[3.2.1]octane-8-carboxamide], the IC50 in assay [1] and in assay [2] was 0.0001 to 10 µM throughout.
